Laboratory results taken from patent US20020111274A1, “1-alkyl-3-[1-(substituted phenyl) benzotriazol-6-yl] uracils” (BASF Aktiengesellschaft, priority 2000, published 2002).

Assays:
Set-up in all cases: scale not given here
ABUTH Velvetleaf [1] = test: Postemergence herbicidal evaluation, ABUTH; type: in vivo, Abutilon theophrasti, Medic.; details: postemergence spray, rated about two-three weeks after treatment
Method in brief: (§1)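 Seedlings grown about two weeks were sprayed with compound in 80/20 acetone/water containing 1.0% methylated seed oil, at the equivalent of about 0.006 to 0.400 kg/ha, through a nozzle at 40 psi. Plants were kept in the greenhouse and rated visually about two to three weeks after treatment.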

AMBEL Ragweed, Common [2] = test: Postemergence herbicidal evaluation, AMBEL; type: in vivo, Ambrosia artemisifolia, L.; details: postemergence spray, rated about two-three weeks after treatment
Method in brief: as §1

CASOB Sicklepod [3] = test: Postemergence herbicidal evaluation, CASOB; type: in vivo, Cassia obtusifolia, L.; details: postemergence spray, rated about two-three weeks after treatment
Method in brief: as §1

[4] = test system: CHEAL Lambsquarters, Common; test: Postemergence herbicidal evaluation, CHEAL; type: in vivo, Chenopodium album, L.; details: postemergence spray, rated about two-three weeks after treatment
Method in brief: as §1

ECHOG Barnyardgrass [5] = test: Postemergence herbicidal evaluation, ECHOG; type: in vivo, Echinochloa crus-galli, (L.) Beau; details: postemergence spray, rated about two-three weeks after treatment
Method in brief: as §1

GALAP Galium [6] = test: Postemergence herbicidal evaluation, GALAP; type: in vivo, Galium aparine; details: postemergence spray, rated about two-three weeks after treatment
Method in brief: as §1

[7] = test system: IPOHE Morningglory, Ivyleaf; test: Postemergence herbicidal evaluation, IPOHE; type: in vivo, Ipomoea hederacea, (L.) Jacq.; details: postemergence spray, rated about two-three weeks after treatment
Method in brief: as §1

SETVI Foxtail, Green [8] = test: Postemergence herbicidal evaluation, SETVI; type: in vivo, Setaria viridis, (L.) Beau; details: postemergence spray, rated about two-three weeks after treatment
Method in brief: as §1

GLXMAW Soybean, Williams [9] = test: Postemergence herbicidal evaluation, GLXMAW; type: in vivo, Glycine max, (L.) Merr. cv Williams; details: postemergence spray, rated about two-three weeks after treatment
Method in brief: as §1

[10] = test system: TRZAWR Wheat, Winter, cv Riband; test: Postemergence herbicidal evaluation, TRZAWR; type: in vivo, Triticum aestivum; details: postemergence spray, rated about two-three weeks after treatment
Method in brief: as §1

ORYSAT Rice, Tebonnet [11] = test: Postemergence herbicidal evaluation, ORYSAT; type: in vivo, Oryza sativa, (L.); details: postemergence spray, rated about two-three weeks after treatment
Method in brief: as §1

ZEAMX Corn, Field [12] = test: Postemergence herbicidal evaluation, ZEAMX; type: in vivo, Zea mays, L. (Sammel-Bezeichnung); details: postemergence spray, rated about two-three weeks after treatment
Method in brief: as §1

ABUTH Velvetleaf [13] = test: Preemergence herbicidal evaluation, ABUTH; type: in vivo, Abutilon theophrasti, Medic.; details: preemergence
Method in brief: (§2)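 Seeds mixed with potting soil in cups, then sprayed preemergence with aqueous acetone test solution at about 0.013 to 0.800 kg per hectare equivalent. Cups kept under standard greenhouse care; plants rated on a visual scale four to five weeks after treatment.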

AMBEL Ragweed, Common [14] = test: Preemergence herbicidal evaluation, AMBEL; type: in vivo, Ambrosia artemisifolia, L.; details: preemergence
Method in brief: as §2

CASOB Sicklepod [15] = test: Preemergence herbicidal evaluation, CASOB; type: in vivo, Cassia obtusifolia, L.; details: preemergence
Method in brief: as §2

[16] = test system: CHEAL Lambsquarters, Common; test: Preemergence herbicidal evaluation, CHEAL; type: in vivo, Chenopodium album, L.; details: preemergence
Method in brief: as §2

ECHOG Barnyardgrass [17] = test: Preemergence herbicidal evaluation, ECHOG; type: in vivo, Echinochloa crus-galli, (L.) Beau; details: preemergence
Method in brief: as §2

GALAP Galium [18] = test: Preemergence herbicidal evaluation, GALAP; type: in vivo, Galium aparine; details: preemergence
Method in brief: as §2

[19] = test system: IPOHE Morningglory, Ivyleaf; test: Preemergence herbicidal evaluation, IPOHE; type: in vivo, Ipomoea hederacea, (L.) Jacq.; details: preemergence
Method in brief: as §2

SETVI Foxtail, Green [20] = test: Preemergence herbicidal evaluation, SETVI; type: in vivo, Setaria viridis, (L.) Beau; details: preemergence
Method in brief: as §2

GLXMAW Soybean, Williams [21] = test: Preemergence herbicidal evaluation, GLXMAW; type: in vivo, Glycine max, (L.) Merr. cv Williams; details: preemergence
Method in brief: as §2

[22] = test system: TRZAWR Wheat, Winter, cv Riband; test: Preemergence herbicidal evaluation, TRZAWR; type: in vivo, Triticum aestivum; details: preemergence
Method in brief: as §2

ORYSAT Rice, Tebonnet [23] = test: Preemergence herbicidal evaluation, ORYSAT; type: in vivo, Oryza sativa, (L.); details: preemergence
Method in brief: as §2

ZEAMX Corn, Field [24] = test: Preemergence herbicidal evaluation, ZEAMX; type: in vivo, Zea mays, L. (Sammel-Bezeichnung); details: preemergence
Method in brief: as §2

COc1ccc(C)c(-n2nnc3cc(F)c(-n4c(=O)cc(C(F)(F)F)n(C)c4=O)cc32)c1 [Example 22]
Postemergence herbicidal rating ABUTH (ABUTH Velvetleaf [1]; 0.008 kg/ha): 9.0 | Postemergence herbicidal rating ABUTH (ABUTH Velvetleaf [1]; 0.016 kg/ha): 9.0 | Postemergence herbicidal rating ABUTH (ABUTH Velvetleaf [1]; 0.032 kg/ha): 9.0 | Postemergence herbicidal rating ABUTH (ABUTH Velvetleaf [1]; 0.062 kg/ha): 9.0 | Postemergence herbicidal rating AMBEL (AMBEL Ragweed, Common [2]; 0.008 kg/ha): 0.0 | Postemergence herbicidal rating AMBEL (AMBEL Ragweed, Common [2]; 0.016 kg/ha): 0.0 | Postemergence herbicidal rating AMBEL (AMBEL Ragweed, Common [2]; 0.032 kg/ha): 2.0 | Postemergence herbicidal rating AMBEL (AMBEL Ragweed, Common [2]; 0.062 kg/ha): 3.0 | Postemergence herbicidal rating CASOB (CASOB Sicklepod [3]; 0.008 kg/ha): 0.0 | Postemergence herbicidal rating CASOB (CASOB Sicklepod [3]; 0.016 kg/ha): 0.0 | Postemergence herbicidal rating CASOB (CASOB Sicklepod [3]; 0.032 kg/ha): 0.0 | Postemergence herbicidal rating CASOB (CASOB Sicklepod [3]; 0.062 kg/ha): 0.0 | Postemergence herbicidal rating CHEAL ([4]; 0.008 kg/ha): 9.0 | Postemergence herbicidal rating CHEAL ([4]; 0.016 kg/ha): 9.0 | Postemergence herbicidal rating CHEAL ([4]; 0.032 kg/ha): 3.0 | Postemergence herbicidal rating CHEAL ([4]; 0.062 kg/ha): 4.0 | Postemergence herbicidal rating ECHCG (ECHOG Barnyardgrass [5]; 0.008 kg/ha): 0.0 | Postemergence herbicidal rating ECHCG (ECHOG Barnyardgrass [5]; 0.016 kg/ha): 0.0 | Postemergence herbicidal rating ECHCG (ECHOG Barnyardgrass [5]; 0.032 kg/ha): 0.0 | Postemergence herbicidal rating ECHCG (ECHOG Barnyardgrass [5]; 0.062 kg/ha): 0.0 | Postemergence herbicidal rating GALAP (GALAP Galium [6]; 0.008 kg/ha): 0.0 | Postemergence herbicidal rating GALAP (GALAP Galium [6]; 0.016 kg/ha): 0.0 | Postemergence herbicidal rating GALAP (GALAP Galium [6]; 0.032 kg/ha): 3.0 | Postemergence herbicidal rating GALAP (GALAP Galium [6]; 0.062 kg/ha): 5.0 | Postemergence herbicidal rating IPOHE ([7]; 0.008 kg/ha): 2.0 | Postemergence herbicidal rating IPOHE ([7]; 0.016 kg/ha): 2.0 | Postemergence herbicidal rating IPOHE ([7]; 0.032 kg/ha): 9.0 | Postemergence herbicidal rating IPOHE ([7]; 0.062 kg/ha): 2.0 | Postemergence herbicidal rating SETVI (SETVI Foxtail, Green [8]; 0.008 kg/ha): 0.0 | Postemergence herbicidal rating SETVI (SETVI Foxtail, Green [8]; 0.016 kg/ha): 0.0 | Postemergence herbicidal rating SETVI (SETVI Foxtail, Green [8]; 0.032 kg/ha): 0.0 | Postemergence herbicidal rating SETVI (SETVI Foxtail, Green [8]; 0.062 kg/ha): 0.0 | Postemergence herbicidal rating GLXMAW (GLXMAW Soybean, Williams [9]; 0.008 kg/ha): 4.0 | Postemergence herbicidal rating GLXMAW (GLXMAW Soybean, Williams [9]; 0.016 kg/ha): 4.5 | Postemergence herbicidal rating GLXMAW (GLXMAW Soybean, Williams [9]; 0.032 kg/ha): 4.0 | Postemergence herbicidal rating GLXMAW (GLXMAW Soybean, Williams [9]; 0.062 kg/ha): 5.0 | Postemergence herbicidal rating TRZAWR ([10]; 0.008 kg/ha): 3.0 | Postemergence herbicidal rating TRZAWR ([10]; 0.016 kg/ha): 3.5 | Postemergence herbicidal rating TRZAWR ([10]; 0.032 kg/ha): 4.0 | Postemergence herbicidal rating TRZAWR ([10]; 0.062 kg/ha): 4.5 | Postemergence herbicidal rating ORYSAT (ORYSAT Rice, Tebonnet [11]; 0.008 kg/ha): 2.0 | Postemergence herbicidal rating ORYSAT (ORYSAT Rice, Tebonnet [11]; 0.016 kg/ha): 2.5 | Postemergence herbicidal rating ORYSAT (ORYSAT Rice, Tebonnet [11]; 0.032 kg/ha): 3.0 | Postemergence herbicidal rating ORYSAT (ORYSAT Rice, Tebonnet [11]; 0.062 kg/ha): 3.0 | Postemergence herbicidal rating ZEAMX (ZEAMX Corn, Field [12]; 0.008 kg/ha): 4.5 | Postemergence herbicidal rating ZEAMX (ZEAMX Corn, Field [12]; 0.016 kg/ha): 4.5 | Postemergence herbicidal rating ZEAMX (ZEAMX Corn, Field [12]; 0.032 kg/ha): 4.0 | Postemergence herbicidal rating ZEAMX (ZEAMX Corn, Field [12]; 0.062 kg/ha): 4.5 | ABUTH herbicidal rating (ABUTH Velvetleaf [13]; rate 0.016 kg/ha): 0.0 | ABUTH herbicidal rating (ABUTH Velvetleaf [13]; rate 0.032 kg/ha): 9.0 | ABUTH herbicidal rating (ABUTH Velvetleaf [13]; rate 0.062 kg/ha): 9.0 | ABUTH herbicidal rating (ABUTH Velvetleaf [13]; rate 0.125 kg/ha): 7.0 | AMBEL herbicidal rating (AMBEL Ragweed, Common [14]; rate 0.016 kg/ha): 0.0 | AMBEL herbicidal rating (AMBEL Ragweed, Common [14]; rate 0.032 kg/ha): 0.0 | AMBEL herbicidal rating (AMBEL Ragweed, Common [14]; rate 0.062 kg/ha): 0.0 | AMBEL herbicidal rating (AMBEL Ragweed, Common [14]; rate 0.125 kg/ha): 0.0 | CASOB herbicidal rating (CASOB Sicklepod [15]; rate 0.016 kg/ha): 0.0 | CASOB herbicidal rating (CASOB Sicklepod [15]; rate 0.032 kg/ha): 0.0 | CASOB herbicidal rating (CASOB Sicklepod [15]; rate 0.062 kg/ha): 0.0 | CASOB herbicidal rating (CASOB Sicklepod [15]; rate 0.125 kg/ha): 0.0 | CHEAL herbicidal rating ([16]; rate 0.016 kg/ha): 9.0 | CHEAL herbicidal rating ([16]; rate 0.032 kg/ha): 9.0 | CHEAL herbicidal rating ([16]; rate 0.062 kg/ha): 9.0 | CHEAL herbicidal rating ([16]; rate 0.125 kg/ha): 9.0 | ECHCG herbicidal rating (ECHOG Barnyardgrass [17]; rate 0.016 kg/ha): 0.0 | ECHCG herbicidal rating (ECHOG Barnyardgrass [17]; rate 0.032 kg/ha): 0.0 | ECHCG herbicidal rating (ECHOG Barnyardgrass [17]; rate 0.062 kg/ha): 2.0 | ECHCG herbicidal rating (ECHOG Barnyardgrass [17]; rate 0.125 kg/ha): 7.0 | GALAP herbicidal rating (GALAP Galium [18]; rate 0.016 kg/ha): 0.0 | GALAP herbicidal rating (GALAP Galium [18]; rate 0.032 kg/ha): 0.0 | GALAP herbicidal rating (GALAP Galium [18]; rate 0.062 kg/ha): 0.0 | GALAP herbicidal rating (GALAP Galium [18]; rate 0.125 kg/ha): 0.0 | IPOHE herbicidal rating ([19]; rate 0.016 kg/ha): 0.0 | IPOHE herbicidal rating ([19]; rate 0.032 kg/ha): 0.0 | IPOHE herbicidal rating ([19]; rate 0.062 kg/ha): 0.0 | IPOHE herbicidal rating ([19]; rate 0.125 kg/ha): 0.0 | SETVI herbicidal rating (SETVI Foxtail, Green [20]; rate 0.016 kg/ha): 0.0 | SETVI herbicidal rating (SETVI Foxtail, Green [20]; rate 0.032 kg/ha): 2.0 | SETVI herbicidal rating (SETVI Foxtail, Green [20]; rate 0.062 kg/ha): 7.0 | SETVI herbicidal rating (SETVI Foxtail, Green [20]; rate 0.125 kg/ha): 9.0 | GLXMAW herbicidal rating (GLXMAW Soybean, Williams [21]; rate 0.016 kg/ha): 0.0 | GLXMAW herbicidal rating (GLXMAW Soybean, Williams [21]; rate 0.032 kg/ha): 0.0 | GLXMAW herbicidal rating (GLXMAW Soybean, Williams [21]; rate 0.062 kg/ha): 0.0 | GLXMAW herbicidal rating (GLXMAW Soybean, Williams [21]; rate 0.125 kg/ha): 0.0 | TRZAWR herbicidal rating ([22]; rate 0.016 kg/ha): 0.0 | TRZAWR herbicidal rating ([22]; rate 0.032 kg/ha): 1.0 | TRZAWR herbicidal rating ([22]; rate 0.062 kg/ha): 2.0 | TRZAWR herbicidal rating ([22]; rate 0.125 kg/ha): 4.0 | ORYSAT herbicidal rating (ORYSAT Rice, Tebonnet [23]; rate 0.016 kg/ha): 0.0 | ORYSAT herbicidal rating (ORYSAT Rice, Tebonnet [23]; rate 0.032 kg/ha): 0.0 | ORYSAT herbicidal rating (ORYSAT Rice, Tebonnet [23]; rate 0.062 kg/ha): 0.0 | ORYSAT herbicidal rating (ORYSAT Rice, Tebonnet [23]; rate 0.125 kg/ha): 0.0 | ZEAMX herbicidal rating (ZEAMX Corn, Field [24]; rate 0.016 kg/ha): 0.0 | ZEAMX herbicidal rating (ZEAMX Corn, Field [24]; rate 0.032 kg/ha): 2.0 | ZEAMX herbicidal rating (ZEAMX Corn, Field [24]; rate 0.062 kg/ha): 4.0 | ZEAMX herbicidal rating (ZEAMX Corn, Field [24]; rate 0.125 kg/ha): 6.0
